Laboratory results taken from patent EP2769738B1, “Conjugated TLR7 and/or TLR8 and TLR2 polycationic agonists” (Invivogen, priority 2013, dated 2014).
“And” between values parts separate entries of the source, which are not always exact repeats. Identical values can stand only once.

What was measured:
HEK293 cells = experiment: Cell transfection with SEAP plasmid, HEK293; assay type: cell-based, human; details: Figure 5A; in complex with pVitro14 LGFP SEAP plasmid, 48 hours, SEAP reporter gene expression
Protocol: (§1) The TLR7-TLR2 molecules were tested for their ability as polyamine molecules to transport plasmid DNA (pDNA) into cells. The pVitro14 LGFP SEAP plasmid (InvivoGen) was complexed to TLR7-TLR2 polyamine molecules and to the control cationic lipid transfection agent, LyoVec™ (InvivoGen). The human HEK293 (ATCC, CRL-1573) and mouse B16-F1 melanoma (ATCC, CRL-6323) cell lines were seeded at a density of 50 000 cells/well and 20 000 cells/well respectively, in the absence or presence of different volumes of the plasmid encoding for the SEAP protein in complex with TLR7-TLR2 polyamine molecules for 48 hours at 37°C and 10% CO2. Transfection efficiency was assessed by measuring SEAP reporter gene expression: 20 µl of supernatant was sampled and mixed with 180 µl of QUANTI-Blue™ Detection (InvivoGen). In the presence of alkaline phosphatase SEAP, the color of QUANTI-Blue™ changes from pink to purple/blue. The intensity of the blue hue reflects the activity of SEAP. The levels of SEAP secretion were determined quantitatively by reading the OD at 620-655 nm using a spectrophotometer, iMark™ Microplate Reader (BIO-RAD).

B16-F1 tumor = experiment: Mouse B16-F1 tumor model, molecule alone; assay type: in vivo, C57BL/6 mice; details: intra-tumoral, 3 injections
Protocol: Measurements were performed under gas anesthesia.
The second group received intra-tumoral injections of CL413 molecule alone (a TLR7-TLR2 Pam2CSK4-based molecule). Third and forth groups received intra-tumoral injections of the TLR2 ligand, Pam2CSK4 alone, and the TLR7 ligand alone, respectively. A fifth group received a combined treatment of Pam2CSK4 and TLR7 ligand, in solution at the equivalent molecule quantity of the respective TLR2 and TLR7 moieties in CL413 (in 100µl Bionolyte G5® with Pluronic® F-68 2%) for a total of 3 injections.

[1] = Determination of nanoparticle (lipoplex) size by dynamic light scattering; assay type: physicochemical; details: ratio 3:24 (w:w); for Conformity (C)/ Non-conformity (NC) / Mean Diameter (nm): complexes with pDNA; for Mean Diameter (nm): dynamic light scattering at 25°C; for Mean Diameter (nm) / PDI: triplicate measurements; for PDI: polydispersity index of complexes with pDNA, 25°C
Protocol: • 1. Preparative HPLC Method: Unless otherwise indicated, the compounds described herein were purified by RP-MPLC ARMEN® Spot Flash Liquid Chromatography (ARMEN Instrument, Saint Ave, France) on a preparative column (SVF D26) packed with 25-40 µm C18 resin (Merck chimie SAS), by applying a linear gradient of 0-10% MeCN in NH4OAc (10 mM) solution (pH = 9) over 60 min at a 15 mL/min flow rate. The purification was monitored at 254 nm. Suitable fractions were pooled and lyophilised. • 2. Proton NMR Spectra: Unless otherwise indicated, all ^1H NMR spectra were run on a Bruker series 300 MHz instrument. Where so characterized, all observed protons are reported as parts-per-million (ppm) downfield from tetramethylsilane (TMS) or other internal reference in the appropriate solvent indicated. NMR spectra were recorded on a Brucker 300 spectrometer. For ^1H (300 MHz) spectra δ values were referenced to CDCI3-d1 (7.26 ppm), DMSO- d6 (2.50 ppm), D2O-d2 (4.79 ppm) or MeOD-d4 (3.31 ppm). The peak patterns are indicated as follows: s: singlet, sl: large singlet, d: doublet, t: triplet, q: quartet, m: multiplet. • 3. Mass Spectra (MS): Analyses were run on an Agilent Model 6130 quadrupole MS. Unless otherwise indicated, all mass spectral data for starting materials, intermediates and/or exemplary compounds are reported as mass/charge (m/z), having an (M+H)^+ molecular ion. The molecular ion reported was obtained by electrospray detection method (commonly referred to as an ESI MS). Compounds having an isotopic atom, such as bromine and the like, are generally reported according to the detected isotopic pattern, as appreciated by those skilled in the art. • 4. Particle size: Particle size was determined using a Malvern Nanosizer (Malvern, Worcestershire, UK) and Malvern ZETASIZER.RTM. (Malvern, Worcestershire, UK). • 5. Naming Convention The compounds disclosed and described herein have been named using the naming convention provided with Chem-Draw Ultra 11.0 software, available in Chem. Office. In some instances, compounds were named with the term "spermine" inserted where appropriate. For example, where the spermine is substituted with Boc, "N1,N5,N10-TriBoc-spermine" is added to the Chem-Draw nomenclature in the appropriate place. Chem-Draw utilizes the ISIS Draw software compound naming convention, as appreciated by those skilled in the art.
For pDNA:TLR7-TLR2 polyamine molecules complexes, a ratio pDNA:TLR7-TLR2 polyamine molecules of 3:24 (w:w) was prepared in serum-free culture medium or in 5% glucose. The TLR7-TLR2 conjugated compound of interest was prediluted in serum-free culture medium or in 5% glucose and incubated for 5 minutes at room temperature, prior to the addition of an endotoxin-free, salt-free preparation of pDNA. In these experiments, the pBsr2pCpGLacZh plasmid was used in the pDNA:TLR7-TLR2 polyamine molecule complexes. The pDNA:TLR7-TLR2 polyamine molecule mixtures were incubated at room temperature for 30 minutes to allow the formation of the complex. The control used in these experiments was the cationic lipid transfection agent LyoVec™ (InvivoGen) prepared in a similar manner.
In order to confirm that TLR7-TLR2 polyamine molecules complex DNA, lipoplex size was determined. The physical characterization of complex was achieved by dynamic light scattering using the analytical equipment for laser diffraction Zetasizer Nano-ZS (Malvern). pDNA:TLR7-TLR2 polyamine molecule complexes were prepared as described above. Subsequently, 50µl of pDNA: TLR7-TLR2 polyamine molecule complexes were placed into a disposable sizing cuvette and measurements were made under conditions defined according to manufacturer's instructions. The measurements were made at 25°C in triplicate and a size distribution report was obtained. […]

B16-F1 cells = experiment: Cell transfection with SEAP plasmid, B16-F1; assay type: cell-based, mouse; details: Figure 5B; in complex with pVitro14 LGFP SEAP plasmid, 48 hours, SEAP reporter gene expression
Protocol: as §1

Structure (SMILES)	ability to transfect HEK293 cells (HEK293 cells)	tumor volume (B16-F1 tumor; Figure 8A, by day 23, compared to Pam2CSK4 alone, TLR7 ligand alone and vehicle control)	mice still alive (survival) (B16-F1 tumor; Figure 8B, by day 42) [%]	Conformity (C)/ Non-conformity (NC) [1]	Mean Diameter (nm) [1]	PDI [1]	ability to transfect B16-F1 cells (B16-F1 cells)
CCCCCCCCCCCCCCCC(=O)OCC(CSC[C@@H](N)C(=O)N[C@@H](CO)C(=O)N[C@@H](CCCCN)C(=O)N[C@@H](CCCCN)C(=O)N[C@@H](CCCCN)C(=O)N[C@H](CCCCN)C(=O)Nc1ccc(Cn2c(O)nc3c(N)nc(NCCCC)nc32)cc1)OC(=O)CCCCCCCCCCCCCCC (stereo in doubt) [CL413, (6S,9S,12S,15S,18S,21R)-6,25-diamino-21-(4-((6-amino-2-(butylamino)-8-hydroxy-9H-purin-9-yl)methyl)phenylcarbamoyl)-12,15,18-tris(4-aminobutyl)-9-(hydroxylmethyl)-7,10, 13,16,19-pentaoxo-4-thia-8,11,14,17,20-pentaazapentacosane-1,2-diyl dipalmitate]	lack the ability to transfect cells	no increase in tumor volume	100	C (ranged between 140 and 200 nm in diameter were considered to show conformity)	140,1 nm and 140,2 nm and 139,1 nm	0,178 and 0,187 and 0,229	lack the ability to transfect cells
CCCCCCCCCCCCCCCC(=O)N[C@@H](CSCC(COC(=O)CCCCCCCCCCCCCCC)OC(=O)CCCCCCCCCCCCCCC)C(=O)N[C@@H](CO)C(=O)N[C@@H](CCCCN)C(=O)N[C@@H](CCCCN)C(=O)N[C@@H](CCCCN)C(=O)N[C@@H](CCCCN)C(=O)Nc1ccc(Cn2c(O)nc3c(N)nc(NCCCC)nc32)cc1 (stereo partly drawn) [CL534, ((6R,9S,12S,15S,18S,21S)-25-amino-21-(4-((6-amino-2-(butylamino)-8-hydroxy-9H-purin-9-yl)methyl)phenylcarbamoyl)-12,15,18-tris(4-aminobutyl)-9-(hydroxylmethyl)-7,10,13,16,19-pentaoxo-6-palmitamido-4-thia-8,11,14,17,20-pentaazapentacosane-1,2-diyl dipalmitate]	lack the ability to transfect cells			C (ranged between 140 and 200 nm in diameter were considered to show conformity)	165,5 nm and 187,1 nm and 182,3 nm	0,352 and 0,394 and 0,354	lack the ability to transfect cells
